Measurements taken from US6706747B2, “Conformationally rigid bicyclic and adamantane derivatives useful as α2-adrenergic blocking agents” (Allergan, Inc., priority 1994, dated 2004).

Experiments:
[1] = biological target: α1; assay: Radioligand binding, [3H]prazosin, human cerebral cortex (HCC) membranes; conditions: 22° C., 30 minutes
Procedure: (§1) Tissue preparation: Membrane suspensions were prepared from human cerebral cortex (HCC) obtained from the UCI Organ and Tissue Bank and rat kidney cortex (RKC). Briefly, tissues (1 g) were homogenized in 25 ml of iced-cold 5 mM tris, pH 7.4 with a Polytron homogenizer for 30 secs at setting# 7, and centrifuged for. 10-12 minutes at 300×g at 4° C. The supernatant was filtered: through 2 layers of gauze and diluted 1:2 with 50 mM Tris-HCI buffer, pH 7.4, then centrifuged at 49,000×g for 20 minutes. The pellet fraction was washed 3 times (resuspended in Tris-HCl buffer and centrifuged for 20 minutes at 49,000×g). The pellet was then stored at −80° C. until the binding assay.
Binding studies: The radioligands [^3H]rauwolscine (specific activity 80 Ci/mmol) and [^3H]prazosin (specific activity 76 Ci/mmol) were obtained from New England Nuclear, Boston, Mass. Frozen membrane pellet was resuspended in 25 mM glycine/glycine, pH 7.4 and incubated with radioligand under the following conditions: CHO—C10, CHO—RNG, HT-29-[^3H]rauwolscine, 22° C., 30 minutes; RKC-[^3H]rauwolscine, 0° C., 120 minutes; and, HCC-[^3H]prazosin, 22° C., 30 minutes in a final volume of 500 μl. At the end of the incubation period, the samples were filtered through glass fiber filters (Whatman GF/B) in a 96 well cell harvester and rapidly washed four times with 4 ml of ice-cold 50 mM, Tris-HCl buffer. The filters were then oven dried and transferred to scintillation vials containing 5 ml of Beckman's Ready Protein® scintillation cocktail for counting. […] Protein concentrations were determined with a protein assay kit from Bio Rad. Binding isotherms, equilibrium dissociation and affinity constants were analyzed and determined by the non-linear least squares curve fitting programs AccuFit Competition/Saturation by Beckman.
Frozen membrane pellet was resuspended either 50 mM tris, 2 mM EGTA, 1 mM MgCl2, pH7.5 (RbKC, RbICB-[^3H]brimonidine); 50 mM tris, 0.5 mM EDTA, 5 mM NaCl, pH 7.7 (RbICB-[^3H]rauwolscine); 25 mM glycine/glycine, pH 7.4 (RtKC, CHO—C10, CH—RNG, HT-29, HCC) or 50 mM tris, 0.1 mM MnCl2, pH7.7 (RtCC). Membrane protein homogenate (75-200 μg) was incubated with radioligand under the following conditions: RbKC and RbICB-[^3H]rauwolscine, 22° C., 45 minutes; RtCC and RbICB-[^3H]brimondine, 22° C., 90 minutes; CHO—C10, CHO—RNG and HT-29-[^3H]rauwolscine, 22° C., 30 minutes; HCC—[^3H]prazosin, 22° C., 30 minutes; and, in a final volume of 250 or 500 μl. At the end of the incubation period, the samples were filtered through glass fiber filters (Whatman GF/B) in a 24 or 96 well cell harvester and rapidly washed four times with 4 mls of iced-cold 50 mM Tris-HCl buffer. The filters were then oven dried and transferred to scintillation vials containing 10 mls of, Beckman's Ready Protein® scintillation cocktail for counting. […] Protein concentrations were determined with a protein assay kit from Bio Rad. Binding isotherms, equilibrium dissociation and affinity constants were analyzed and determined by the non-linear least squares curve fitting programs EBDA (BioSoft) or AccuFit Competition/Saturation by Beckman.
The radioligands [^3H]rauwolscine (specific activity 80 Ci/mmol) and [^3H]prazosin (specific activity 76 Ci/mmol) were obtained from New England Nuclear, Boston, Mass. Frozen membrane pellet was resuspended in 25 mM glycine/glycine, pH 7.4 and incubated with radioligand under the following conditions: CHO—C10, CHO—RNG-[^3H]rauwolscine, 22° C., 30 minutes; and, HCC—[^3H]prazosin, 22° C., 30 minutes in a final volume of 500 ul.

[2] = biological target: T1, Rat Kidney Cortex (α2AB) (Rattus norvegicus, UniProt P19328); assay: Radioligand binding, [3H]rauwolscine, rat kidney cortex (RKC) membranes; conditions: values marked †: rat kidney cortex, 0° C., 120 minutes, read-out: Ki (nM) α2B (RKC)†
T1 construct: Membrane suspensions were prepared from human cerebral cortex (HCC) obtained from the UCI Organ and Tissue Bank and rat kidney cortex (RKC); from tissue; host or cells: rat kidney cortex
T1 sequence (P19328 1-453): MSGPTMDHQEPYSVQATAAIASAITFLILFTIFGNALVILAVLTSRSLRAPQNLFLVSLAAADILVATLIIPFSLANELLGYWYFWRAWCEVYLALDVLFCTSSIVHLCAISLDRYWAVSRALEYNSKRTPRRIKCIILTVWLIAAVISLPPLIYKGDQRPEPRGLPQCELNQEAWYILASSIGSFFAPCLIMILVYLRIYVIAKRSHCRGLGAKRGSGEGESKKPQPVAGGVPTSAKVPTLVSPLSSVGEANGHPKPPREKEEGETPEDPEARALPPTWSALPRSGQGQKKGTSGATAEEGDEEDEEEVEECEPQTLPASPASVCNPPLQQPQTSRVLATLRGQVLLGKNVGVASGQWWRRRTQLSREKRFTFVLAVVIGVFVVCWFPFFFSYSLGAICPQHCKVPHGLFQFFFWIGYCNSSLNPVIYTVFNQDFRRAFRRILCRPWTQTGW
Procedure: as §1
Binding studies: The radioligands [^3H]rauwolscine (specific activity 80 Ci/mmol) and [^3H]prazosin (specific activity 76 Ci/mmol) were obtained from New England Nuclear, Boston, Mass. Frozen membrane pellet was resuspended in 25 mM glycine/glycine, pH 7.4 and incubated with radioligand under the following conditions: CHO—C10, CHO—RNG, HT-29-[^3H]rauwolscine, 22° C., 30 minutes; RKC-[^3H]rauwolscine, 0° C., 120 minutes; and, HCC-[^3H]prazosin, 22° C., 30 minutes in a final volume of 500 μl. At the end of the incubation period, the samples were filtered through glass fiber filters (Whatman GF/B) in a 96 well cell harvester and rapidly washed four times with 4 ml of ice-cold 50 mM, Tris-HCl buffer. The filters were then oven dried and transferred to scintillation vials containing 5 ml of Beckman's Ready Protein® scintillation cocktail for counting. Specific binding defined by 10 μM phentolamine for competition studies were as follows: 0.3 nM [^3H]rauwolscine—CHO—C10 99%; 0.4 nM[^3H]rauwolscine —CHO—RNG 99%; 0.7;nM [^3H]rauwolscine—HT-29 90%; 1 nm [^3]rauwolscine—RKC 92%, and 0.3 nM [^3H]prazosin—HCC 87%. Protein concentrations were determined with a protein assay kit from Bio Rad. Binding isotherms, equilibrium dissociation and affinity constants were analyzed and determined by the non-linear least squares curve fitting programs AccuFit Competition/Saturation by Beckman.

| Ki [1] [nM] | Ki [2] [nM] | SMILES |
| --- | --- | --- |
| > 10000 | 58 | CC(C)C1C2CCC(C2)C1NC1=NCCO1 (stereo not shown) |
| 17200 | 5100 | C1CCC(C2C3CCC(C3)C2NC2=NCCN2)CC1 (stereo not shown) |
| 42000 | 167 | CCCCC1C2CCC(C2)C1NC1=NCCS1 (stereo not shown) |

Continued, molecule first:

| SMILES | Ki [1] [nM] | Ki [2] [nM] |
| --- | --- | --- |
| CCCCC1C2CCC(C2)C1NC1=NCCO1 (stereo not shown) | 5820 | 59 |
| CCCCNC1=NCCO1 | > 100000 | 317 |
